Patent US20130281313A1, “PROGNOSTIC AND/OR PREDICTIVE BIOMARKERS AND BIOLOGICAL APPLICATIONS THEREOF” (INSTITUT GUSTAVE ROUSSY, priority 2010, published 2013)

How the values were obtained:
Type in all cases: cell-based, human
A549 cells [1] = experiment: Cytofluorometric assessment of cell death (DiOC6(3)/PI co-staining); details: A549 cells
Protocol: Unless otherwise specified, chemicals were purchased from Sigma-Aldrich (St. Louis, USA), culture media and supplements for cell culture from Gibco-Invitrogen (Carlsbad, USA) and plasticware from Corning (Corning, USA). […] Orlistat (Xenical®) was obtained from Roche (Basel, Switzerland). […] Undissolved material was removed by two sequential rounds of centrifugation at 12,000 G (5 min, room temperature, RT), supernatants were collected and stored at −80° C. under protection from light until use. In low-throughput experiments, all cell lines were treated with 2.5 mM pyridoxine (PN), exception made for A549 cells that received 5 mM PN.
To avoid depleting the siRNA library of selected sequences, siRNAs for validation experiments were purchased as custom molecules from Sigma-Aldrich. For low-throughput experiments, (see below for the transfection protocols employed in the siRNA screen), siRNA were transfected in A549 cells with Oligofectamine™ reagent (Invitrogen), following the manufacturer's instructions. Transfection with a non-targeting siRNA (siUNR) was employed as a negative control condition. Forty-eight hours after transfection, siRNA-mediated target downregulation was assessed by immunoblotting (see below).
All cytofluorometric determinations were carried out a FACSCalibur or a FACScan cytofluorometer (BD Biosciences, San Jose, USA) equipped with a 70 μm nozzle.
First line statistical analysis of cytofluorometric results was performed by using the CellQuest™ software (BD Biosciences), by gating on the events characterized by normal forward scatter and side scatter parameters. Apoptosis- and cell cycle-related data were further analyzed with Microsoft Excel (Microsoft Co., Redmond, USA) and statistical significance was assessed by means of two-tailed Student's t test (p<0.05).

A549 cells [2] = experiment: Targeted metabolomic studies (ATP, ADP, AMP, GSH; RRLC-MS); details: A549 cells incubated for 24 h with 5 mM GSH
Protocol: A549 cells were left untreated or treated with 25 μM CDDP alone or in combination with 5 mM PN, for 24 h. Thereafter, both attached (living) and detached (dying/dead) cells were harvested, washed once in cold PBS and pelleted (800 G for 5 min). Pellets were resuspended in 200 μL deionized water, briefly vortexed and sonicated. 800 μl ice-cold methanol was added, and samples were kept in ice for 15 min, vortexed and centrifuged at 13,000 G for 10 min at 4° C. Supernatants were dried in a SpeedVac drier (Thermo Scientific-Pierce) and stored at −80° C. until analysis. Pellets were resuspended in 150 μL 98:2 water/acetonitrile immediately before analytical determinations (see below).
ATP, ADP, AMP and GSH were quantified on a Rapid Resolution Liquid Chromatography (RRLC) 1200SL system coupled to a 6410 Triple Quadripole (QQQ) mass spectrometer (both from Agilent Technologies). For nucleotides, RRLC was performed on 150×2.1 mm, 3.5 μM Eclipse Plus columns (Agilent Technologies) with water containing 4 mM dimethylhexylamine (DMHA) plus 0.01% (v/v) acetic acid in channel A and acetonitrile in channel B, in gradient mode at a flow rate of 0.2 mL/min: t=0 min 2% B; t=9 min 32% B; t=10 min 95% B; T=12 min 95% B, re-equilibration time=6 min. Mass spectrometry was performed in positive electrospray ionization mode at +4 kV on the QQQ system operating in MRM mode. MRM transitions were optimized with direct infusions of ATP, ADP, and AMP standards with direct infusion, and four transitions were recorded for each compounds. Parent ions were adduct ions of DMHA and also proton adducts:
For GSH, RRLC was performed on a 150×2.1 mm, 3.5 μM Stable Bond AQ column (Agilent Technologies) with water containing 0.2% (v/v) acetic acid in channel A and methanol in channel B, in gradient mode at a flow rate of 0.3 mL/min: t=0 min 2% B; t=8 min 95% B; t=9 min 95% B; re-equilibration time=6 min. Mass spectrometry was performed as above. MRM transitions were optimized with direct infusion of GSH standards.
Data collection and analysis were performed with the MassHunter software (Agilent Technologies).

A549 cells [3] = experiment: Intracellular levels of CDDP in cell lysates; details: 24 h, 25 μM CDDP alone or with PN and/or GSH, normalized to protein content
Protocol: (E,F) Intracellular levels of CDDP (normalized to protein content) in lysates from untransfected A549 cells (D) or A549 cells transfected with a PDXK-targeting siRNA (E), treated for 24 h with 25 μM CDDP alone or in combination with PN and/or GSH. Mean±SEM (n=6). *=p<0.05 (Studen's t test), as compared to untransfected (D) or siUNR transfected (E) cells treated with CDDP only. n.s.=non significant (Student's t test), as compared to cells treated with the same concentration of GSH (D) or to siPDXK-transfected cells treated with CDDP only (E).

[4] = followed by CDDP, DiOC6(3)/PI co-staining

## N[C@@H](CCC(=O)N[C@@H](CS)C(=O)NCC(=O)O)C(=O)O [GSH, glutathione]
A549 cells [1]; 25 or 75 μM CDDP plus PN
  protection against the cytotoxic effect of CDDP plus PN: protected cells against the cytotoxic effect of CDDP plus PN
A549 cells [1]; CDDP irrespective of the presence of PN
  apoptosis-inducing effect of CDDP (DiOC6(3)/PI co-staining or DNA loss, sub-G1 peak): blocked the apoptosis-inducing effect of CDDP
A549 cells [2]
  intracellular GSH levels upon extracellular GSH: had no significant impact on intracellular GSH levels
A549 cells [3]
  intracellular accumulation of CDDP: strongly inhibited the accumulation of CDDP within the cells

## Cc1ccc(-c2cn3c4c(sc3n2)CCCC4)cc1 [cyclic pifithrin-α]
A549 cells [1]; [4]
  protection against CDDP, COX inhibition with sodium azide combined with TP53 inhibition with cyclic pifithrin-α: synergistic protection against CDDP

## CCCCCCCCCCCCCCC(Br)C(=O)O (stereo not drawn) [2-bromopalmitate]
A549 cells [1]; [4]
  epistatic interaction on CDDP-induced cell death, ZDHHC9 inhibition (2-bromopalmitate) combined with IL6R blockade (extracellular antibody): no significant epistatic interaction
